The values that follow come from patent publication US20150045410A1, “METHOD OF REGULATING CFTR EXPRESSION AND PROCESSING” (University of Iowa Research Foundation, priority 2012, published 2015).

This data set deals with SIN3A. Nature of the data set: SIN3A mRNA (RT-qPCR) and protein (immunoblot) in primary human airway epithelia. The format is cell-based. Particulars: polarized primary human airway epithelia; mRNA 24 hrs, protein 72 hrs post-transfection. How it is done:
Airway epithelia from human trachea and primary bronchus removed from organs donated for research were cultured at the air-liquid interface (ALI) (Karp, P. H. et al. An in vitro model of differentiated human airway epithelia. Methods for establishing primary cultures. Methods Mol. Biol. 188, 115-137 (2002)). These studies were approved by the Institutional Review Board of the University of Iowa. Briefly, airway epithelial cells were dissociated from native tissue by pronase enzyme digestion. Permeable membrane inserts (0.6 cm^2 Millipore-PCF, 0.33 cm^2 Costar-Polyester) pre-coated with human placental collagen (IV, Sigma) were seeded with freshly dissociated epithelia. […]
First-strand cDNA was synthesized using SuperScript® II (Invitrogen), and oligo-dT and random-hexamer primers. […] To quantitate miRNAs, TaqMan® microRNA Assays (Applied Biosystems) were obtained for miR-138, RNU48 (control) and 8 other miRNAs (negative control, miRs-21, -24, -26a, -200c, -146a, -146b, -27a*, -134). […] All experiments were performed in quadruplicate. mRNA and miRNA quantification in cell lines represents 8 independent transfections in 4 separate experiments. mRNA quantification in human primary airway epithelial cultures represent 8 independent transfections in 8 non-CF donors and 4 CF donors. […]
In general terms: Real-time PCR tracks product formation cycle by cycle.

In the case of “miR-138 mimic: synthetic modified RNA duplex, sense SEQ ID NO: 4, antisense SEQ ID NO: 5, showing miR-138-like activity”, the “SIN3A mRNA and protein levels” value is “reduced”.
